Assay results: PubChem BioAssay (NCI)
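Test compounds were applied to cells in 96-well plates for 48 hours at 5 doses. Here, GI50 denotes the concentration required for 50% inhibition of growth. TGI denotes the concentration required for complete inhibition of growth.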

Tests used:
Assay in all cases: DTP human tumour cell line panel, 48 h
786-0 renal = tested on: 786-0 renal
A498 renal = tested on: A498 renal
A549 NSCLC = tested on: A549 NSCLC
ACHN renal = tested on: ACHN renal
BT-549 breast = tested on: BT-549 breast
CAKI-1 renal = tested on: CAKI-1 renal
CCRF-CEM leukemia = tested on: CCRF-CEM leukemia
COLO 205 colon = tested on: COLO 205 colon
DU-145 prostate = tested on: DU-145 prostate
EKVX NSCLC = tested on: EKVX NSCLC
HCC-2998 colon = tested on: HCC-2998 colon
HCT-116 colon = tested on: HCT-116 colon
HCT-15 colon = tested on: HCT-15 colon
HL-60(TB) leukemia = tested on: HL-60(TB) leukemia
HOP-62 NSCLC = tested on: HOP-62 NSCLC
HOP-92 NSCLC = tested on: HOP-92 NSCLC
HS 578T breast = tested on: HS 578T breast
HT29 colon = tested on: HT29 colon
IGROV1 ovarian = tested on: IGROV1 ovarian
K-562 leukemia = tested on: K-562 leukemia
KM12 colon = tested on: KM12 colon
LOX IMVI melanoma = tested on: LOX IMVI melanoma
M14 melanoma = tested on: M14 melanoma
MALME-3M melanoma = tested on: MALME-3M melanoma
MCF7 breast = tested on: MCF7 breast
MDA-MB-231 breast = tested on: MDA-MB-231 breast
MDA-MB-435 = tested on: MDA-MB-435
MDA-MB-468 breast = tested on: MDA-MB-468 breast
MOLT-4 leukemia = tested on: MOLT-4 leukemia
NCI-H226 lung = tested on: NCI-H226 lung
NCI-H23 lung = tested on: NCI-H23 lung
NCI-H460 lung = tested on: NCI-H460 lung
NCI-H522 lung = tested on: NCI-H522 lung
NCI/ADR-RES ovarian = tested on: NCI/ADR-RES ovarian
OVCAR-3 ovarian = tested on: OVCAR-3 ovarian
OVCAR-4 ovarian = tested on: OVCAR-4 ovarian
OVCAR-5 ovarian = tested on: OVCAR-5 ovarian
OVCAR-8 ovarian = tested on: OVCAR-8 ovarian
PC-3 prostate = tested on: PC-3 prostate
RPMI-8226 leukemia = tested on: RPMI-8226 leukemia
RXF 393 renal = tested on: RXF 393 renal
SF-268 CNS = tested on: SF-268 CNS
SF-295 CNS = tested on: SF-295 CNS
SF-539 CNS = tested on: SF-539 CNS
SK-MEL-2 melanoma = tested on: SK-MEL-2 melanoma
SK-MEL-28 melanoma = tested on: SK-MEL-28 melanoma
SK-MEL-5 melanoma = tested on: SK-MEL-5 melanoma
SK-OV-3 ovarian = tested on: SK-OV-3 ovarian
SN12C renal = tested on: SN12C renal
SNB-19 CNS = tested on: SNB-19 CNS
SNB-75 CNS = tested on: SNB-75 CNS
SW-620 colon = tested on: SW-620 colon
T-47D breast = tested on: T-47D breast
TK-10 renal = tested on: TK-10 renal
U251 CNS = tested on: U251 CNS
UACC-257 melanoma = tested on: UACC-257 melanoma
UACC-62 melanoma = tested on: UACC-62 melanoma
UO-31 renal = tested on: UO-31 renal

O=C(c1ccc(OCCN2CCOCC2)cc1)C1[C@H](c2ccc(Cl)cc2)[C@@H](c2ccccc2)NC12C(=O)Nc1ccc(Br)cc12 (stereo partly specified)
GI50 (786-0 renal): 2.95 µM | TGI (786-0 renal): 6.69 µM | GI50 (A498 renal): 3.05 µM | TGI (A498 renal): 7.55 µM | GI50 (A549 NSCLC): 4.27 µM | TGI (A549 NSCLC): > 16.3 µM | GI50 (ACHN renal): 3.84 µM | TGI (ACHN renal): 14.3 µM | GI50 (BT-549 breast): 3.44 µM | TGI (BT-549 breast): 8.33 µM | GI50 (CAKI-1 renal): 3 µM | TGI (CAKI-1 renal): > 16.3 µM | GI50 (CCRF-CEM leukemia): 4.42 µM | TGI (CCRF-CEM leukemia): 12.8 µM | GI50 (COLO 205 colon): 2.52 µM | TGI (COLO 205 colon): 4.93 µM | GI50 (DU-145 prostate): 3.91 µM | TGI (DU-145 prostate): 11.8 µM | GI50 (EKVX NSCLC): 2.71 µM | TGI (EKVX NSCLC): 11.2 µM | GI50 (HCC-2998 colon): 2.61 µM | TGI (HCC-2998 colon): 5.37 µM | GI50 (HCT-116 colon): 2.63 µM | TGI (HCT-116 colon): 5.45 µM | GI50 (HCT-15 colon): 2.69 µM | TGI (HCT-15 colon): 6.23 µM | GI50 (HL-60(TB) leukemia): 4.2 µM | TGI (HL-60(TB) leukemia): 12 µM | GI50 (HOP-62 NSCLC): 2.83 µM | TGI (HOP-62 NSCLC): 6.58 µM | GI50 (HOP-92 NSCLC): 2.35 µM | TGI (HOP-92 NSCLC): 6.69 µM | GI50 (HS 578T breast): 2.58 µM | TGI (HS 578T breast): 7.19 µM | GI50 (HT29 colon): 2.49 µM | TGI (HT29 colon): 5.38 µM | GI50 (IGROV1 ovarian): 3.32 µM | TGI (IGROV1 ovarian): 9.74 µM | GI50 (K-562 leukemia): 3.87 µM | TGI (K-562 leukemia): > 16.3 µM | GI50 (KM12 colon): 2.98 µM | TGI (KM12 colon): 7.26 µM | GI50 (LOX IMVI melanoma): 2.43 µM | TGI (LOX IMVI melanoma): 4.59 µM | GI50 (M14 melanoma): 2.56 µM | TGI (M14 melanoma): 5.44 µM | GI50 (MALME-3M melanoma): 2.39 µM | TGI (MALME-3M melanoma): 5.09 µM | GI50 (MCF7 breast): 2.92 µM | TGI (MCF7 breast): 10.2 µM | GI50 (MDA-MB-231 breast): 2.66 µM | TGI (MDA-MB-231 breast): 5.09 µM | GI50 (MDA-MB-435): 3.17 µM | TGI (MDA-MB-435): 7.28 µM | GI50 (MDA-MB-468 breast): 2.83 µM | TGI (MDA-MB-468 breast): 7.65 µM | GI50 (MOLT-4 leukemia): 2.9 µM | TGI (MOLT-4 leukemia): 10.2 µM | GI50 (NCI-H226 lung): 2.94 µM | TGI (NCI-H226 lung): 7.82 µM | GI50 (NCI-H23 lung): 2.87 µM | TGI (NCI-H23 lung): 6.76 µM | GI50 (NCI-H460 lung): 2.8 µM | TGI (NCI-H460 lung): 5.59 µM | GI50 (NCI-H522 lung): 3.39 µM | TGI (NCI-H522 lung): 8.58 µM | GI50 (NCI/ADR-RES ovarian): 3.87 µM | TGI (NCI/ADR-RES ovarian): 12.1 µM | GI50 (OVCAR-3 ovarian): 2.56 µM | TGI (OVCAR-3 ovarian): 6.91 µM | GI50 (OVCAR-4 ovarian): 4.33 µM | TGI (OVCAR-4 ovarian): > 16.3 µM | GI50 (OVCAR-5 ovarian): 2.95 µM | TGI (OVCAR-5 ovarian): 9.56 µM | GI50 (OVCAR-8 ovarian): 4.37 µM | TGI (OVCAR-8 ovarian): > 16.3 µM | GI50 (PC-3 prostate): 2.96 µM | TGI (PC-3 prostate): 9.34 µM | GI50 (RPMI-8226 leukemia): 4.05 µM | TGI (RPMI-8226 leukemia): 16.1 µM | GI50 (RXF 393 renal): 1.84 µM | TGI (RXF 393 renal): 4.57 µM | GI50 (SF-268 CNS): 3.66 µM | TGI (SF-268 CNS): > 16.3 µM | GI50 (SF-295 CNS): 2.4 µM | TGI (SF-295 CNS): 4.94 µM | GI50 (SF-539 CNS): 2.73 µM | TGI (SF-539 CNS): 5.19 µM | GI50 (SK-MEL-2 melanoma): 2.32 µM | TGI (SK-MEL-2 melanoma): 4.8 µM | GI50 (SK-MEL-28 melanoma): 2.7 µM | TGI (SK-MEL-28 melanoma): 5.08 µM | GI50 (SK-MEL-5 melanoma): 2.69 µM | TGI (SK-MEL-5 melanoma): 5.11 µM | GI50 (SK-OV-3 ovarian): 4.46 µM | TGI (SK-OV-3 ovarian): > 16.3 µM | GI50 (SN12C renal): 2.35 µM | TGI (SN12C renal): 4.53 µM | GI50 (SNB-19 CNS): 4.46 µM | TGI (SNB-19 CNS): > 16.3 µM | GI50 (SNB-75 CNS): 2.37 µM | TGI (SNB-75 CNS): > 16.3 µM | GI50 (SW-620 colon): 2.78 µM | TGI (SW-620 colon): 5.68 µM | GI50 (T-47D breast): 3.09 µM | TGI (T-47D breast): > 16.3 µM | GI50 (TK-10 renal): 3.62 µM | TGI (TK-10 renal): 11.1 µM | GI50 (U251 CNS): 2.6 µM | TGI (U251 CNS): 5.52 µM | GI50 (UACC-257 melanoma): 3.69 µM | TGI (UACC-257 melanoma): 13 µM | GI50 (UACC-62 melanoma): 2.22 µM | TGI (UACC-62 melanoma): 4.46 µM | GI50 (UO-31 renal): 2.57 µM | TGI (UO-31 renal): 7.86 µM
